Measured values reported in patent publication US20050084484A1, “Reduction of oxidative stress factors” (Probi AB, priority 1999, published 2005).

Assays:
[1] = tested on: monocytes and lymphocytes; test: Effect of ibuprofen on ROS production, comparative study; assay type: in vivo, human; details: ibuprofen 500 mg/d for 3 weeks, six healthy volunteers; preliminary data; compared with Lactobacillus plantarum 299v
Procedure: The measurement of cell oxidation is based on reactive oxygen species (ROS) mediated conversion of nonfluorescent 2,7′-dichlorofluorescein (DCFH), loaded into cells as 2,7′-dichlorofluorescein diacetate, into fluorescent DCF with increased fluorescence emission reflecting enhanced oxidative stress. Freshly isolated PBMC, consisting of approximatively 30% monocytes and 70% lymphocytes, were resuspended in phosphate buffered saline (PBS) followed by incubation with 20 μM […] at 37° C. for 30 min in the dark. The cells were then washed with PBS. The relative fluorescence intensity of the fluorophore 2′,7-dichlorofluorescein, which is formed by peroxide oxidation of its nonfluorescent precursor, was detected with cytofluorimetric assay (FACScan, Becton Dickinson). During flow cytometric analysis monocytes and lymphocytes were gated on the basis of forward scater (FCS) and side scater (SCC). The results are expressed as mean fluorescence intensity […].
In order to investigate the mechanisms behind the reduction of ROS by ibuprofen, a propionic acid derivative and a well-known antiinflammatory drug, ibuprofen was administered in an amount of 500 mg/d to the same group of six healthy volunteers as participated in the study described in Test 1 for 3 weeks.

[2] = tested on: Human monocyte macrophage cells; test: Propionic acid induced reduction of oxidative stress (8-Isoprostane EIA); assay type: cell-based; details: 10 μM propionic acid 4 h, then LPS 1.0 ng/ml 24 h; versus control cells; mean of 3 experiments
Procedure: Human monocyte macrophage cells were isolated as described above and 6 million cells were preincubated in 2 ml of RPMI-1640 medium (10% fetalcalf serum, […] of penicillin/streptomycin, 2 mM glutamine) in dishes having a diameter of […]. 10 μM propionic acid was then added and the cells were incubated at 37° C. for 4 h. The medium was subsequently removed and replaced with fresh medium and the cells were stimulated with LPS (lipopolysaccharide), 1.0 ng/ml medium, in order to provoke prooxidant stress. After 24 h the medium was removed and concentrated 10 times by evaporation. Oxidative stress with and without (control cells) propionic acid was evaluated using the 8-Isoprostane EIA kit from Cayman Chemical.
The reduction of oxidative stress expressed as the mean value from 3 experiments of the decrease in the 8-isoprostane level was 47%.

SMILES | ROS response of monocytes and lymphocytes [1] | Reduction of oxidative stress, decrease in the 8-isoprostane level [2]
CC(C)Cc1ccc(C(C)C(=O)O)cc1 (centres unmarked) [ibuprofen] | respond in exactly the same way | 
CCC(=O)O [propionic acid] |  | 47%
